Experimental data taken from patent US10105414B2, “Peptides derived from RS1 which down-regulate glucose absorption after a glucose rich meal and increase insulin sensitivity” (Julius-Maximilians-Universität Würzburg, priority 2014, dated 2018).
Numbering of substitutions follows the chain as printed. Names may count otherwise. Where two headings read alike, the source gives them in different places.

Key:
hSGLT1 [1] = experiment: hSGLT1-mediated AMG uptake in Xenopus laevis oocytes 1 h after injection of peptides; assay type: cell-based, human; settings: for down-regulation of hSGLT1: without injection of AMG (<10 μM); for affinity for down-regulation of hSGLT1 compared with hRS1-Reg wildtype: low intracellular glucose; for effect of intracellular AMG on the affinity for down-regulation of hSGLT1: without versus with injection of AMG
Method: (§1) Selected oocytes were injected with 50 nl of water containing cRNAs (2.5 ng of hSGLT1 or 0.5 ng of hCNT1). For expression oocytes were incubated for 2-3 days at 16° C. in modified Barth's solution with gentamycin. Noninjected control oocytes were incubated in parallel.
(§2) Before uptake measurements were started, 50 nl of K-Ori buffer containing peptides, polypeptides, 1 pM of calmodulin stimulated kinase 2 (CK2) inhibitor KN93 (Calbiochem San Diego. Calif.), 3 mM of the omithinedecarboxlase inhibitor difluoromethylornithine DFMO and/or or 100 pmol α-methyl-α-D-glucopyranoside (AMG) were injected and the oocytes were incubated for 1 h at room temperature. Uptake was measured in Ori buffer at room temperature. Measurements in transporter expressing oocytes were corrected for measurements in noninjected oocytes. Uptake of 50 μM [^14C]AMG was measured after 15 min incubation and washing in ice-cold Ori buffer containing 1 mM phlorizin. Uptake of 5 μM [^3H]uridine was measured after 15 min incubation and washing in ice-cold Ori buffer. Oocytes were solubilized in 5% (w/v) SDS and analyzed for radioactivity by scintillation counting.
(§3) For comparison of mean values from 2 groups the Student's t-test for unpaired samples was employed.

hCNT1 = experiment: hCNT1-mediated uridine uptake in Xenopus laevis oocytes after injection of peptides; assay type: cell-based, human; settings: no AMG injected; for uptake of 5 μM [3H]uridine expressed by hCNT1: low intracellular glucose
Method: as §1, §2, §3

hCNT3 = experiment: hCNT3-mediated uridine uptake in Xenopus laevis oocytes after injection of peptides; assay type: cell-based, human; settings: low intracellular glucose, no AMG injected
Method: FIG. 9. […] Posttransciptional downregulation of hCNT1 and hCNT3 was measured without injection of AMG. […] One hour later uptake of 5 μM [^3H]uridine was measured.
as §2

mSGLT1 [2] = settings: RS1−/− mice starved over night; gavage 20 μmol per mouse; after 2 h
Method: (§4) For measurement of SGLT1 mediated glucose uptake, the everted segments of mouse small intestine or defined areas of human mucosa were incubated for 2 min at 37° C. with Krebs-Ringer buffer containing 10 μM [^14C]AMG with or without 0.2 mM phlorizin. Uptake was stopped by transferring the segments into ice cold Krebs-Ringer buffer containing 0.2 mM phlorizin for 5 min. After washing with ice cold Krebs-Ringer buffer the intestinal segments or pieces of human mucosa were dissolved in 0.5 ml Soluence-350) (Perkin Elmer Inc. Waltham Mass., USA). Radioactivity was analysed by liquid scintillation counting. Phlorizin inhibited AMG uptake per cm length or per standard area of the mucosa was calculated.
After 2 h the animals were killed, their small intestines were everted and phlorizin inhibited uptake of 10 μM [^14C]AMG Into segments of the everted jejunum was measured (FIG. 12A).

mSGLT1 [3] = settings: 5 mM tripeptide, 30 min, 37° C., 5 mM D-glucose
Method: (§5) Standardised t areas of human small intestinal mucosa (FIGS. 13,19) or 1 cm segments of everted mouse small intestine (FIGS. 14,15,20) were washed three times at 37° C. with Krebs-Ringer buffer containing 5 mM D-glucose and incubated for 30 min at 37° C. in Krebs-Ringer buffer containing 5 mM D-glucose plus different concentrations of tripeptides. Thereafter the tissue was washed three times at 0° C. in Krebs-Ringer buffer without glucose and uptake measurements were performed.
as §4
Thereafter the segments were washed with PBS buffer and phlorizin inhibited uptake of 10 μM [^14C]AMG was measured.

hSGLT1 [4] = settings: cited from earlier work
hSGLT1 [5] = settings: 5 mM D-glucose, 30 min
Method: Jejunal segments which were routinely dissected during bariatric operations of highly obese patients were stored for 1-3 h on ice in Dulbecco's modified Eagle's medium containing 5 mM D-glucose. The mucosa was isolated and circular areas of the mucosa were dissected using a punching instrument.
as §5, §4
Next, it was investigated which of the QXP-type tripeptides are capable to downregulate hSGLT1 expression in human small intestine in the presence of high glucose. Jejunal samples that were obtained during bariatric surgery of obese patients (males and females with a mean age of 50 years with a mean body mass index of 50) were used. […] A part of the jejumum which is routinely removed during bariatric surgery, was carried to the laboratory using ice-cold culture medium containing 6 mM D-glucose. Part of the mucosa was dissected and identical areas of the mucosa were isolated using a punching instrument. The mucosal pieces were washed with glucose free buffer and incubated for 30 min at 37° C. in tissue culture medium (pH 6.4) containing 5 mM D-glucose and different QXP-type tripeptides. Thereafter the sample were washed two times with PBS buffer (pH 7.4, 37° C.) and incubated for 2 min at 37° C. in PBS (pH 7.4) containing 100 mM sodium and 10 μM [^14C]AMG. The incubation was performed in the absence and presence of 200 μM of the SGLT1 inhibitor phlorizin. Thereafter the samples were washed with ice-cold PBS, the tissue was dissolved, and radioactivity was determined by liquid scintillation counting. The phorizin inhibited AMG uptake was calculated.

mSGLT1 [6] = experiment: Phlorizin inhibited AMG uptake into everted small intestine after gavage of mice with mRS1-Reg coupled to hydrogel nanoparticles; assay type: in vivo, mouse; settings: gavage 1 nmol coupled to nanoparticles, 2 h
Method: Inversed miniemulsions were prepared from 2.5 ml hexane containing 50.3 mg Span 80 (Sigma, Taufkirchen, Germany) and 16.7 mg TWEEN 80™ (Sigma) and 0.4 ml 20 mM Hepes pH 7.4 containing 100 mg of thiol-functionalized linear poly(glycidol) polymer (Groll (2009) Journal of Polymer Science 47,5543-5549), 0.5 mg […] (TAT-peptide, Peptides International, Louisville, Ky., USA), and 0.28 mg cysteine-terminated RS1-Reg peptide. In control nanohydrogels the RS1-Reg peptide was omitted. The nanogels were prepared as described (Groll (2009) Journal of Polymer Science 47,5543-5549). Shortly, the organic and aqueous phase were combined, stirred, and a miniemulsion was prepared by ultrasonication at 0° C. For formation of disulphide bridges 60 μL of 0.1 M H2O2 in water were added. The mixture was sonicated for 60 s and incubated for 25 min at room temperature. Oxidation was quenched by acidification and the nanogels were separated by centrifugation. The aqueous layer containing the nanogels was separated and washed four times with a tetrahydrofuran/water (20%/80%)-mixture to remove the surfactants and unreacted polymer. Remaining organic solvents and acid were removed by dialysis against water. The nanohydrogel suspension was stored up to two weeks stored at 4° C.
Male Rs1−/− mice or wildtype mice (Osswald (2005) Mol Cell Biol. 25, 78-87) kept on standard diet were starved over night and gavaged with 200 μl water (adjusted with HCl to pH 5.5) containing 10 mg nanohydrohydrogel that was loaded with 45 μg mRS1-Reg mutant. As a control unloaded nanohydrogel was used. […] The jejunum was cut into 1 cm long segments.
Radioactivity was analysed by liquid scintillation counting.
RS1−/− mice starved overnight were gavaged with 200 μl empty NPs (control) or 200 μl NPs loaded with 1 nmol mRS1-Reg(S19A) or 1 nmol mRS1-Reg(S19E). […] 2 h after gavage with mRS1-Reg mutants coupled to NPs, phlorizin (200 μM) Inhibited uptake of 10 μM AMG labelled containing tracer [^14C]AMG after 2 min incubation at 37° C. (FIG. 21A, C) or uptake of 1 mM AMG labelled with tracer [^14C]AMG after 2 min incubation at 37° C. was measured (FIG. 21B, D). […] Since AMG is rapidly transported by mSGLT1 into the enterocytes the intracellular concentration increases within seconds to values higher than 0.25 mM when the cells were incubated with 1 mM AMG. […] In contrast phlorizin-inhibited uptake of 10 μM AMG or 1 mM AMG was inhibited by 26 and 30% respectively. […] The data further indicate that gavage of a mouse with 1 nmol mRS1-Reg(S19E) is sufficient to downregulate SGLT1 in the presence of low and high intracelluar glucose.

[7] = 5 pM, intracellular AMG ~0.25 mM

glutamine-serine-proline [QSP, reference compound]
inhibition of SGLT1 mediated transport (hSGLT1 [1]; 50 nM tripeptide, no AMG injected): inhibition | effect on hSGLT1 expression (hSGLT1 [1]; 250 μM intracellular AMG): abolished | IC50 (hSGLT1 [1]; without injection of AMG (intracellular AMG <10 μM), read-out: IC50 for down-regulation of hSGLT1-mediated AMG uptake): 0.2 nM | uptake of 5 μM [3H]uridine expressed by hCNT1 (hCNT1): not able to inhibit | uptake of 5 μM [3H]uridine expressed by hCNT3 (hCNT3): not able to inhibit | decrease of phlorizin inhibited uptake of 10 μM [14C]AMG into everted jejunum (mSGLT1 [2]): no significant effect | decrease of SGLT1 mediated uptake of 10 μM [14C]AMG (mSGLT1 [3]; wildtype mice): no significant effect | inhibition of hSGLT1 expression in oocytes (hSGLT1 [4]; 200 nM QSP, intracellular AMG <10 μM): 40-50% | inhibition of hSGLT1 expression in oocytes after injection of AMG (hSGLT1 [4]; 200 nM QSP, intracellular AMG higher than 250 μM): abolished | down-regulation of hSGLT1 at raised intracellular AMG (hSGLT1 [4]; intracellular AMG higher than 0.1 mM): blunted

glutamine-serinethiophosphate-proline [QSthiophosphateP]
degree of down-regulation of hSGLT1 (hSGLT1 [1]; [7]): ~75% | down-regulation of hSGLT1 expression (hSGLT1 [1]; [7]): down-regulated | down-regulation of hSGLT1 (hSGLT1 [1]; 5 pM): not | down-regulation of hSGLT1 expression (hSGLT1 [1]; 500 pM, intracellular AMG ~0.25 mM): down-regulated | down-regulation of hSGLT1 (hSGLT1 [1]; 500 pM): down-regulated | decrease of SGLT1 mediated uptake of 10 μM [14C]AMG (mSGLT1 [3]; RS1−/− mice): significantly inhibited | decrease of SGLT1 mediated uptake of 10 μM [14C]AMG (mSGLT1 [3]; wildtype mice): significantly inhibited | down-regulation of hSGLT1 mediated AMG uptake (hSGLT1 [5]; 5 mM): ~30% | down-regulation of hSGLT1 mediated AMG uptake (hSGLT1 [5]; 15 mM): ~40%

SDSDRIEP [octapeptide corresponding to a particular motif of human RS1, reference compound]
uptake of 5 μM [3H]uridine expressed by hCNT1 (hCNT1): decreased | uptake of 5 μM [3H]uridine expressed by hCNT3 (hCNT3): decreased

B1: mRS1-Reg(S19E): mRS1-Reg, first/N-terminal QSP motive replaced by QEP (SEQ ID No. 10), coupled to hydrogel nanoparticles for gavage (protein)
chain: PSGQEPEVGSPTSLARSVSASVCAIKPGDPNSIESLAMEATKASAEFQTNSKKTDPPPLQVLPDLASSAEQSLAMPFH
modifications: coupled to hydrogel nanoparticles; mRS1-Reg(S19E)
inhibition of phlorizin-inhibited uptake of 10 μM AMG (mSGLT1 [6]; RS1−/− mice): 26% | inhibition of phlorizin-inhibited uptake of 1 mM AMG (mSGLT1 [6]; RS1−/− mice): 30% | decrease of uptake of 1 mM AMG (high intracellular glucose) (mSGLT1 [6]; wild type mice): 40% | uptake of 10 μM AMG (low intracellular glucose) (mSGLT1 [6]; wild type mice): not altered

B2: hRS1-Reg(S45A): hRS1-Reg with serine 45 replaced by alanine to prevent phosphorylation (protein)
chain: SSGQSPDVGNPMSLARSVSASVCPIKPSDADRIEPKAVKALKASAEFQLNSEKKEHLSLQDLSDHASSADHAPTDQSPAMPMQ
modifications: left off: small tags and cut ends
notes: hRS1-Reg with serine 45 replaced by alanine to prevent phosphorylation
affinity for down-regulation of hSGLT1 compared with hRS1-Reg wildtype (hSGLT1 [1]; no AMG injected): similar | effect of intracellular AMG on the affinity for down-regulation of hSGLT1 (hSGLT1 [1]): abolished

B3: hRS1-Reg(S45E): hRS1-Reg with serine 45 replaced by glutamate to mimick phosphorylation (protein)
chain: B2 chain with A30E
modifications: left off: small tags and cut ends
notes: hRS1-Reg with serine 45 replaced by glutamate to mimick phosphorylation
affinity for down-regulation of hSGLT1 compared with hRS1-Reg wildtype (hSGLT1 [1]; no AMG injected): increases affinity | effect of intracellular AMG on the affinity for down-regulation of hSGLT1 (hSGLT1 [1]): abolished | affinity for down-regulation of hCNT1 compared with hRS1-Reg wildtype (hCNT1): similar | effect of mimicking phosphorylation in position 45 on affinity for down-regulation of hCNT1 (hCNT1): decreases affinity

B4: hRS1-Reg(S20A): hRS1-Reg mutant preventing phosphorylation at serine in position 20 (protein)
chain: B2 chain with S5A, A30S
modifications: left off: small tags and cut ends
affinity for down-regulation of hSGLT1 compared with hRS1-Reg wildtype (hSGLT1 [1]; no AMG injected): does not alter the affinity

B5: hRS1-Reg(S20E): hRS1-Reg, the first/N-terminal QSP motive is replaced by QEP (SEQ ID No. 9) (protein)
chain: B2 chain with S5E, A30S
modifications: hRS1-Reg(S20E)
affinity for down-regulation of hSGLT1 higher than hRS1-Reg wildtype (hSGLT1 [1]; high intracellular glucose (AMG ~250 μM)): 15 Mill | increase of affinity (decrease of IC50) for down-regulation of hSGLT1 at high versus low intracellular AMG (hSGLT1 [1]; intracellular AMG ~250 μM versus low): 300 fold
